Patent US4925869A, “Therapeutic agents” (Imperial Chemical Industries PLC, priority 1986, dated 1990)

What was measured:
Type in all cases: cell-based
rat aortal strip = target: T1, rat aortal strip (Rattus norvegicus, UniProt P34978); experiment: rat aortal strip model, antagonism of the TXA2 mimetic U46619 (test (a)); details: agonist U46619, procedure (a), read-out: pA2 (converted)
T1 construct: the rat aortal strip model developed by Kennedy et alia; from tissue; host or cells: rat aorta strip
T1 sequence (P34978 1-341): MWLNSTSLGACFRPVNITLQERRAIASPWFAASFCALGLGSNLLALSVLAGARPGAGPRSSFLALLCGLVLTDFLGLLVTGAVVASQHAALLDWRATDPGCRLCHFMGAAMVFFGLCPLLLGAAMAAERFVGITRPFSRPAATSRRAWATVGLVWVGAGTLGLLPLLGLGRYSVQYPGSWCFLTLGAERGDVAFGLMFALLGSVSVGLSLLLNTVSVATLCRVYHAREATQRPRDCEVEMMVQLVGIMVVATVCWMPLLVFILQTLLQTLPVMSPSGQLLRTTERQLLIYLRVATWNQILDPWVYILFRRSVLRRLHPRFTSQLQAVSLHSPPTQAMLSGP
Description: As stated earlier, the compounds of formula I are antagonists of one or more of the actions of TXA2, for example certain of its actions on blood platelets, the vasculature and/or the lung.
(a) The rabbit aortal strip model devised by Piper and Vane (Nature, 1969, 223, 29-35) or the rat aortal strip model developed by Kennedy et alia (Prostaglandins, 1982, 24, 667-689), using as agonist the TXA2 mimetic agent known as U46619 (described by R. L. Jones et alia. in "Chemistry, Biochemistry and Pharmacological Activity of Prostanoids" edited by S. M. Roberts and F. Scheinmann, at page 211, Pergamon Press, 1979);

[1] = target: T2, human, citrated platelet rich plasma (Homo sapiens, UniProt P21731); experiment: blood platelet aggregation test, U46619-induced aggregation of human citrated platelet rich plasma (test (b)); details: U46619, procedure (b)
T2 construct: aggregating human, citrated platelet rich plasma; from tissue; host or cells: human citrated platelet rich plasma (native platelets)
T2 sequence (P21731 1-343): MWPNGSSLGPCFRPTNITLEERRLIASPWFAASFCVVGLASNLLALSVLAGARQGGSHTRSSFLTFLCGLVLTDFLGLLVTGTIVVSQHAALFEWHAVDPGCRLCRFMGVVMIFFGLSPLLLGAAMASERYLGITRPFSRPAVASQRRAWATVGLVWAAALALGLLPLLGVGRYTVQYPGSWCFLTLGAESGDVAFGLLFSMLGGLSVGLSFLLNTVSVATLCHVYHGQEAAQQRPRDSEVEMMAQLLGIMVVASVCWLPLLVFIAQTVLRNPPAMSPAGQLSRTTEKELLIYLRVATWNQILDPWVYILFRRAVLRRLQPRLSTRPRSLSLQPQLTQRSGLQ
Description: (b) a blood platelet aggregation test based on that described by Born (Nature, 1962, 194, 927-929) and involving:
(i) aggregating human, citrated platelet rich plasma by addition of the TXA2 mimetic agent U46619 so that a dose-response curve is generated:
(ii) generating a dose-response curve for U46619 stimulated platelet aggregation in the presence of increasing amounts of test compound (generally in the range, 10^-5 M to 10^-10 M); and
(iii) calculating a KB value indicating potency of TXA2 antagonism for the test compound, averaged over several concentrations, from the calculated 50% response value for U46619 aggregation in the presence and absence of test compound: and (c) a bronchoconstriction test involving measuring the inhibition by test compound of the bronchoconstriction induced in the Konzett-Rossler, anaesthetised guinea-pig model (as modified by Collier and James, Brit. J. Pharmacol., 1967, 30, 283-307) by intravenous administration of the TXA2 mimetic agent, U46619 and involving: […]

human platelets = experiment: inhibition of arachidonic acid induced aggregation of human platelets
Description: The beneficial effects of combining one of the novel TXA2 antagonists of formula I defined hereinabove with a TXA2 synthetase inhibitor may be illustrated in vitro, for example by evaluating their effects in inhibiting arachidonic acid induced aggregation of human platelets, using standard procedures well known in the art.

Kb (rat aortal strip) | Kb [1] | SMILES | inhibition of arachidonic acid induced aggregation of human platelets (human platelets; tested alone at 10^-9 M) | inhibition of arachidonic acid induced aggregation of human platelets (human platelets; tested alone at 10^-4 M)
0.195 nM | 17.5 nM | CC(C)(Oc1ccccc1)[C@H]1OC[C@@H](C/C=C\CCC(=O)O)[C@@H](c2ccccc2O)O1 (relative stereo) [Example 6, 4(Z) 6 ([2,4,5 cis]4-o-hydroxyphenyl-2-[1-methyl-1-phenoxyethyl] -1,3-dioxan-5-yl)hexenoic acid] | no significant inhibition | 
 |  | O=C(O)c1ccc(OCCn2ccnc2)cc1 [dazoxiben, reference compound] |  | no significant inhibition
